Test results as given in patent US10221173B2, “Chemical compounds” (AstraZeneca AB, priority 2017, dated 2019).

How the values were obtained:
[1] = target: recombinant human Estrogen Receptor alpha ligand binding domain (ER alpha-LBD (GST)) (Homo sapiens (Human), UniProt P03372); experiment: ERα binding assay (LanthaScreen TR-FRET competition)
Procedure: The ability of compounds to bind to isolated Estrogen Receptor Alpha Ligand binding domain (ER alpha—LBD (GST)) was assessed in competition assays using a LanthaScreen Time-Resolved Fluorescence Resonance Energy Transfer (TR-FRET) detection end-point. For the LanthaScreen TR-FRET endpoint, a suitable fluorophore (Fluormone ES2, ThermoFisher, Product code P2645) and recombinant human Estrogen Receptor alpha ligand binding domain, residues 307-554 (expressed and purified in-house) were used to measure compound binding. The assay principle is that ER alpha-LBD (GST) is added to a fluorescent ligand to form a receptor/fluorophore complex. A terbium-labelled anti-GST antibody (Product code PV3551) is used to indirectly label the receptor by binding to its GST tag, and competitive binding is detected by a test compound's ability to displace the fluorescent ligand, resulting in a loss of TR-FRET signal between the Tb-anti-GST antibody and the tracer. The assay was performed as follows with all reagent additions carried out using the Beckman Coulter BioRAPTR FRD microfluidic workstation: • 1. Acoustic dispense 120 nL of the test compound into a black low volume 384 well assay plates. • 2. Prepare 1× ER alpha-LBD/Tb-antiGST Ab in ES2 screening buffer and incubate for 15 minutes. • 3. […] Cover the assay plate to protect the reagents from light and evaporation, and incubate at room temperature for 4 hours. • 5. Excite at 337 nm and measure the fluorescent emission signal of each well at 490 nm and 520 nm using the BMG PheraSTAR.
TR-FRET dose response data obtained with each compound was exported into a suitable software package (such as Origin or Genedata) to perform curve fitting analysis. Competitive ER alpha binding was expressed as an IC50 value.

[2] = target: T1, Estrogen Receptor (ERα) in MCF-7 cells (Homo sapiens (Human), UniProt P03372); experiment: MCF-7 ER down-regulation assay (immuno-fluorescence); type: cell-based
T1 sequence (P03372 whole entry): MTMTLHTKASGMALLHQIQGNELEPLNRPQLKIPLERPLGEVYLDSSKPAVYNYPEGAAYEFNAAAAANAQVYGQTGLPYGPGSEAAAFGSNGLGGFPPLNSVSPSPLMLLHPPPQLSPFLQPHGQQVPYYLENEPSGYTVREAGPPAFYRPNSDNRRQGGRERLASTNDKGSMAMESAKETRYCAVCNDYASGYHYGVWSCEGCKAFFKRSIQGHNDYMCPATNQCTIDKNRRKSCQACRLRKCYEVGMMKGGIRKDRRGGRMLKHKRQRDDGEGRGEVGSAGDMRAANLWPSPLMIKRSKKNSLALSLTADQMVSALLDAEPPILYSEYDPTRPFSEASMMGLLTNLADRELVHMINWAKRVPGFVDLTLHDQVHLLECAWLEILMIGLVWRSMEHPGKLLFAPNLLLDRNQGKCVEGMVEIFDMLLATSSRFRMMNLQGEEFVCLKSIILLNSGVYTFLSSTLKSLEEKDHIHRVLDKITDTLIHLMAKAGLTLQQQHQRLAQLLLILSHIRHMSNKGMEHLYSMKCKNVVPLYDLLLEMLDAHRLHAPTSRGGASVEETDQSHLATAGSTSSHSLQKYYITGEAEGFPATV

[3] = target: estrogen receptor (ERα) in CAMA-1 cells (Homo sapiens (Human), UniProt P03372); experiment: Western blotting assay, ER down-regulation in CAMA-1; type: cell-based; conditions: CAMA-1, 100 nM compound, 48 h, vs 100 nM fulvestrant
Sequence of estrogen receptor (ERα) in CAMA-1 cells (P03372 whole entry): as above

[4] = target: T1, Estrogen Receptor (ERα) in MCF-7 cells; experiment: Western blotting assay, ER down-regulation in MCF-7; type: cell-based; conditions: MCF-7, 100 nM compound, 48 h, vs 100 nM fulvestrant

Sequence of recombinant human Estrogen Receptor alpha ligand binding domain (ER alpha-LBD (GST)) (P03372 307-554): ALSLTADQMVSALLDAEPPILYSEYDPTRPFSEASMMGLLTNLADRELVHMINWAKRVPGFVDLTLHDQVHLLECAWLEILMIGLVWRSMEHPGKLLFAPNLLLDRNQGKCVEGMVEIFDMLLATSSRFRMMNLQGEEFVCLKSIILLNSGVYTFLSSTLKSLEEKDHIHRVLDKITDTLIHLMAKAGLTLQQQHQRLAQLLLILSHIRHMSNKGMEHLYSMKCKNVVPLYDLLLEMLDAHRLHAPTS

Compound | IC50 [1] [nM] | IC50 [2] [nM] | CAMA1 Western % ER deg vs Fv [3] [%] | MCF7 Western % ER deg vs Fv [4] [%]
Cc1c(OCCNCCC(F)F)ccc(F)c1[C@@H]1c2[nH]c3ccccc3c2C[C@@H](C)N1C[C@@H](C)C(=O)O [Example 123, (R)-3-((1R,3R)-1-(3-(2-((3,3-difluoropropyl)amino)ethoxy)-6-fluoro-2-methylphenyl)-3-methyl-1,3,4,9-tetrahydro-2H-pyrido[3,4-b]indol-2-yl)-2-methylpropanoic acid] | 11 | 0.96 | 90 | 91
COc1ccc(OCCNCCCF)c(F)c1[C@@H]1c2[nH]c3ccccc3c2C[C@@H](C)N1CC(F)(F)F [Example 11, 3-fluoro-N-(2-(2-fluoro-4-methoxy-3-((1R,3R)-3-methyl-2-(2,2,2-trifluoroethyl)-2,3,4,9-tetrahydro-1H-pyrido[3,4-b]indol-1-yl)phenoxy)ethyl)propan-1-amine] | 1.2 | 0.14 | 92 | 94
C[C@@H]1Cc2c([nH]c3ccccc23)[C@@H](c2c(F)ccc(OCCNCCCF)c2F)N1CC1(F)CC1 [Example 76, N-(2-(2,4-difluoro-3-((1R,3R)-2-((1-fluorocyclopropyl)methyl)-3-methyl-2,3,4,9-tetrahydro-1H-pyrido[3,4-b]indol-1-yl)phenoxy)ethyl)-3-fluoropropan-1-amine] | 1 | 0.21 | 85 | 92
Cc1c(OCCNCCCF)ccc(F)c1[C@@H]1c2[nH]c3ccccc3c2C[C@@H](C(F)F)N1C[C@H](C)C(=O)O [Example 137, (S)-3-((1R,3S)-3-(difluoromethyl)-1-(6-fluoro-3-(2-((3-fluoropropyl)amino)ethoxy)-2-methylphenyl)-1,3,4,9-tetrahydro-2H-pyrido[3,4-b]indol-2-yl)-2-methylpropanoic acid] | 1.7 | 0.52 | 95 | 90
Cc1c(OCCN(C)CCCF)ccc(F)c1[C@@H]1c2[nH]c3ccccc3c2C[C@@H](C)N1C[C@H](C)C(=O)O [Example 143, (S)-3-((1R,3R)-1-(6-fluoro-3-(2-((3-fluoropropyl)(methyl)amino)ethoxy)-2-methylphenyl)-3-methyl-1,3,4,9-tetrahydro-2H-pyrido[3,4-b]indol-2-yl)-2-methylpropanoic acid] | – | – | 71 | 87
C[C@@H]1Cc2c([nH]c3ccccc23)[C@@H](c2c(F)ccc(OCCNCCCF)c2F)N1CC(F)(F)CO [Example 14, 3-((1R,3R)-1-(2,6-difluoro-3-(2-((3-fluoropropyl)amino)ethoxy)phenyl)-3-methyl-1,3,4,9-tetrahydro-2H-pyrido[3,4-b]indol-2-yl)-2,2-difluoropropan-1-ol] | – | – | 95 | 95
C[C@@H]1Cc2c([nH]c3ccccc23)[C@@H](c2c(F)cnc(OCCNCCCF)c2F)N1CC(F)(F)CO [Example 64, 3-((1R,3R)-1-(3,5-difluoro-2-(2-((3-fluoropropyl)amino)ethoxy)pyridin-4-yl)-3-methyl-1,3,4,9-tetrahydro-2H-pyrido[3,4-b]indol-2-yl)-2,2-difluoropropan-1-ol] | 0.96 | 0.071 | 98 | 96
Cc1c(OCCNCCCF)ccc(F)c1[C@@H]1c2[nH]c3ccccc3c2C[C@@H](C)N1C[C@H](C)C(=O)O [Example 55, (S)-3-((1R,3R)-1-(6-fluoro-3-(2-((3-fluoropropyl)amino)ethoxy)-2-methylphenyl)-3-methyl-1,3,4,9-tetrahydro-2H-pyrido[3,4-b]indol-2-yl)-2-methylpropanoic acid] | – | – | 94 | 89
